Drawing on ChEMBL document CHEMBL3272261, “Aminobenzioc acid diuretics. 8.(2) 3, 4-Disubstituted 5-methylsulfonylbenzioc acids and related compounds” (1976), this text covers Activity for 22 compounds.

Assay [1] deals with Canis familiaris. Nature of the assay: Diuretic activity in dog assessed as urine volume measured in water at 0.1 mg/kg, po after 3 hrs. The class given is functional, Canis lupus familiaris.
Assay [2] concerns Canis familiaris. Kind of assay: Saluretic activity in dog assessed as urinary excretion of potassium level at 0.1 mg/kg, po after 3 hrs. The class given is functional, Canis lupus familiaris, Urine.
The subject of assay [3] is Canis familiaris. Nature of the assay: Saluretic activity in dog assessed as urinary excretion of sodium level at 0.1 mg/kg, po after 3 hrs. Type of assay: functional, Canis lupus familiaris, Urine.
The test system of assay [4] is Canis familiaris. Kind of assay: Saluretic activity in dog assessed as urinary excretion of chloride level at 0.1 mg/kg, po after 3 hrs. Type of assay: functional, Canis lupus familiaris, Urine.
Assay [5] relates to Canis familiaris. Nature of the assay: Diuretic activity in dog assessed as urine volume measured in water at 10 mg/kg, iv after 3 hrs. Type of assay: functional, organism-based. Set-up: dose 10 mg/kg. To be noted: Canis lupus familiaris.
In assay [6] the test system is Canis familiaris. Nature of the assay: Saluretic activity in dog assessed as urinary excretion of sodium level at 0.25 mg/kg, po after 3 hrs. Type of assay: functional, Canis lupus familiaris, Urine.
In assay [7] the test system is Canis familiaris. Kind of assay: Diuretic activity in dog assessed as urine volume measured in water at 0.25 mg/kg, po after 3 hrs. The class given is functional, Canis lupus familiaris.
The subject of assay [8] is Canis familiaris. Kind of assay: Saluretic activity in dog assessed as urinary excretion of potassium level at 0.25 mg/kg, po after 3 hrs. The class given is functional, Canis lupus familiaris, Urine.
Assay [9] has as its system Canis familiaris. Kind of assay: Saluretic activity in dog assessed as urinary excretion of chloride level at 0.25 mg/kg, po after 3 hrs. Type of assay: functional, Canis lupus familiaris, Urine.
Assay [10] relates to Canis familiaris. Nature of the assay: Saluretic activity in dog assessed as urinary excretion of sodium level at 1 mg/kg, po after 3 hrs. Type of assay: functional, Canis lupus familiaris, Urine.
Assay [11] relates to Canis familiaris. Kind of assay: Diuretic activity in dog assessed as urine volume measured in water at 1 mg/kg, po after 3 hrs. Type of assay: functional, Canis lupus familiaris.
For assay [12], the system named is Canis familiaris. Nature of the assay: Saluretic activity in dog assessed as urinary excretion of chloride level at 1 mg/kg, po after 3 hrs. Type of assay: functional, Canis lupus familiaris, Urine.
Assay [13] deals with Canis familiaris. Kind of assay: Saluretic activity in dog assessed as urinary excretion of potassium level at 1 mg/kg, po after 3 hrs. The class given is functional, Canis lupus familiaris, Urine.
Assay [14] deals with Canis familiaris. Kind of assay: Diuretic activity in dog assessed as urine volume measured in water at 0.25 mg/kg, iv after 3 hrs. Type of assay: functional.
Assay [15] concerns Canis familiaris. Nature of the assay: Diuretic activity in dog assessed as urine volume measured in water at 1 mg/kg, iv after 3 hrs. The class given is functional, Canis lupus familiaris.
Assay [16] has as its system Canis familiaris. Kind of assay: Saluretic activity in dog assessed as urinary excretion of sodium level at 1 mg/kg, iv after 3 hrs. Type of assay: functional, Canis lupus familiaris, Urine.
Assay [17] concerns Canis familiaris. Kind of assay: Saluretic activity in dog assessed as urinary excretion of potassium level at 1 mg/kg, iv after 3 hrs. Type of assay: functional, Canis lupus familiaris, Urine.
The test system of assay [18] is Canis familiaris. Kind of assay: Saluretic activity in dog assessed as urinary excretion of chloride level at 1 mg/kg, iv after 3 hrs. The class given is functional, Canis lupus familiaris, Urine.
Assay [19] has as its system Canis familiaris. Nature of the assay: Saluretic activity in dog assessed as urinary excretion of potassium level at 0.01 mg/kg, iv after 3 hrs. The class given is functional, Canis lupus familiaris, Urine.
For assay [20], the system named is Canis familiaris. Nature of the assay: Saluretic activity in dog assessed as urinary excretion of potassium level at 0.1 mg/kg, iv after 3 hrs. Type of assay: functional, Canis lupus familiaris, Urine.
Assay [21] concerns Canis familiaris. Nature of the assay: Saluretic activity in dog assessed as urinary excretion of sodium level at 0.1 mg/kg, iv after 3 hrs. Type of assay: functional, Canis lupus familiaris, Urine.
Assay [22] has as its system Canis familiaris. Kind of assay: Saluretic activity in dog assessed as urinary excretion of chloride level at 0.1 mg/kg, iv after 3 hrs. The class given is functional, Canis lupus familiaris, Urine.
Assay [23] relates to Canis familiaris. Kind of assay: Diuretic activity in dog assessed as urine volume measured in water at 0.1 mg/kg, iv after 3 hrs. The class given is functional, Canis lupus familiaris.
For assay [24], the system named is Canis familiaris. Nature of the assay: Diuretic activity in dog assessed as urine volume measured in water at 0.01 mg/kg, iv after 3 hrs. Type of assay: functional, Canis lupus familiaris.
Assay [25] concerns Canis familiaris. Kind of assay: Saluretic activity in dog assessed as urinary excretion of chloride level at 0.01 mg/kg, iv after 3 hrs. Type of assay: functional, Canis lupus familiaris, Urine.
Assay [26] deals with Canis familiaris. Nature of the assay: Saluretic activity in dog assessed as urinary excretion of sodium level at 0.01 mg/kg, iv after 3 hrs. Type of assay: functional, Canis lupus familiaris, Urine.
For assay [27], the system named is Canis familiaris. Nature of the assay: Saluretic activity in dog assessed as urinary excretion of sodium level at 0.25 mg/kg, iv after 3 hrs. Type of assay: functional, Canis lupus familiaris, Urine.
The subject of assay [28] is Canis familiaris. Kind of assay: Saluretic activity in dog assessed as urinary excretion of chloride level at 0.25 mg/kg, iv after 3 hrs. The class given is functional, Canis lupus familiaris, Urine.
Assay [29] concerns Canis familiaris. Nature of the assay: Saluretic activity in dog assessed as urinary excretion of potassium level at 0.25 mg/kg, iv after 3 hrs. The class given is functional, Canis lupus familiaris, Urine.

Calls of active or inactive are those of the source. The rule behind the calls is not given here.

As for `CS(=O)(=O)c1cc(C(=O)O)cc(OCc2ccccc2)c1C(=O)c1ccccc1`, the Activity turned out to be 11 mL/kg with Canis familiaris [1], 0.25 milliequivalent/kg with Canis familiaris [2], 1.2 milliequivalent/kg in the assay with Canis familiaris [3] and 1.7 milliequivalent/kg in the assay with Canis familiaris [4].
For `CS(=O)(=O)c1cc(C(=O)O)c(NCc2ccccc2)cc1Oc1ccccc1`, in the assay on Canis familiaris [5], the result was inactive.
On to `CCCCNc1cc(C(=O)O)cc(S(C)(=O)=O)c1C(=O)c1ccccc1`, for which the Activity worked out at 0.9 milliequivalent/kg in the assay on Canis familiaris [6], 9 mL/kg in the assay with Canis familiaris [7], 0.19 milliequivalent/kg in the assay with Canis familiaris [8] and 1.2 milliequivalent/kg in the assay with Canis familiaris [9].
In the case of `CCCCOc1cc(C(=O)O)cc(S(C)(=O)=O)c1C(=O)c1ccccc1`, the Activity in the assay with Canis familiaris [10] came to 2.6 milliequivalent/kg; with Canis familiaris [11], 24 mL/kg; with Canis familiaris [1], 4 mL/kg; with Canis familiaris [12] it was 3.4 milliequivalent/kg; with Canis familiaris [2], 0.22 milliequivalent/kg; in the assay on Canis familiaris [13] it was 0.54 milliequivalent/kg. The Activity in the assay with Canis familiaris [3] is 0.5 milliequivalent/kg; in the assay with Canis familiaris [4], 0.8 milliequivalent/kg.
Consider `CS(=O)(=O)c1cc(C(=O)O)cc(NCc2ccccc2)c1Nc1ccccc1`, for which the result in the assay on Canis familiaris [14] (Canis lupus familiaris) was inactive.
Regarding `CS(=O)(=O)c1cc(C(=O)O)cc(SCc2ccccc2)c1Sc1ccccc1`, the result in the assay with Canis familiaris [11] (Canis lupus familiaris) was inactive.
With `CSc1cc(C(=O)O)cc(NCc2ccccc2)c1Oc1ccccc1`, the Activity in the assay on Canis familiaris [15] amounted to 7 mL/kg; with Canis familiaris [16], 0.6 milliequivalent/kg; in the assay with Canis familiaris [17], 0.21 milliequivalent/kg; with Canis familiaris [18], 0.9 milliequivalent/kg.
For the compound `CS(=O)(=O)c1cc(C(=O)O)c(NCc2ccccc2)cc1Nc1ccccc1`, the outcome in the assay with Canis familiaris [5] was inactive.
Turning to `O=C(O)c1cc(NCc2ccccc2)c2c(c1)S(=O)(=O)CC2(O)c1ccccc1` (configuration not stated), in the assay with Canis familiaris [15] (Canis lupus familiaris), the result was inactive.
For the compound `NS(=O)(=O)c1cc(C(=O)O)c(NCc2ccco2)cc1Oc1ccccc1`, the Activity came out at 0.27 milliequivalent/kg in the assay on Canis familiaris [19]; 0.45 milliequivalent/kg in the assay on Canis familiaris [20]; 2.9 milliequivalent/kg in the assay on Canis familiaris [21]; 3.8 milliequivalent/kg in the assay on Canis familiaris [22]; 25 mL/kg with Canis familiaris [23]; 8 mL/kg in the assay on Canis familiaris [24]. Besides, the values for the Activity with Canis familiaris [25] and in the assay with Canis familiaris [26] were 0.8 milliequivalent/kg and 0.6 milliequivalent/kg, respectively.
As for `CS(=O)(=O)c1cc(C(=O)O)cc(NCc2ccccc2)c1Oc1ccccc1`, the Activity in the assay with Canis familiaris [15] is 31 mL/kg; with Canis familiaris [27], 3 milliequivalent/kg; with Canis familiaris [28], 3.5 milliequivalent/kg; in the assay with Canis familiaris [16], 4.8 milliequivalent/kg; with Canis familiaris [20], 0.2 milliequivalent/kg; in the assay on Canis familiaris [17], 0.98 milliequivalent/kg. In addition, the Activity stood at 1.1 milliequivalent/kg in the assay with Canis familiaris [21]; 1.4 milliequivalent/kg in the assay on Canis familiaris [22]; 5.1 milliequivalent/kg with Canis familiaris [18]; 9 mL/kg in the assay with Canis familiaris [23]; 0.99 milliequivalent/kg in the assay on Canis familiaris [29]; 21 mL/kg in the assay on Canis familiaris [14].
In the case of `CCCCNc1cc(C(=O)O)cc(S(C)(=O)=O)c1Oc1ccccc1`, the Activity was 15 mL/kg with Canis familiaris [15]; 2.1 milliequivalent/kg in the assay on Canis familiaris [16]; 0.19 milliequivalent/kg in the assay with Canis familiaris [20]; 0.22 milliequivalent/kg with Canis familiaris [17]; 0.6 milliequivalent/kg in the assay on Canis familiaris [21]; 0.4 milliequivalent/kg in the assay on Canis familiaris [22]. In addition, the Activity in the assay on Canis familiaris [18] came out at 2.7 milliequivalent/kg; with Canis familiaris [23], 3 mL/kg.
With `O=C(O)c1cc(NCc2ccccc2)c2c(c1)S(=O)(=O)C=C2c1ccccc1`, the outcome in the assay on Canis familiaris [15] (Canis lupus familiaris) was inactive.
As for `C[S+]([O-])c1cc(C(=O)O)cc(NCc2ccccc2)c1Oc1ccccc1` (configuration not stated), the Activity with Canis familiaris [15] came out at 7 mL/kg; with Canis familiaris [16], 0.9 milliequivalent/kg; in the assay with Canis familiaris [17] it was 0.17 milliequivalent/kg; in the assay on Canis familiaris [18], 1.1 milliequivalent/kg.
Take `CCCCNc1cc(C(=O)O)cc2c1C(c1ccccc1)=CS2(=O)=O`: the result in the assay with Canis familiaris [15] (Canis lupus familiaris) was inactive.
In the case of `CCCCNc1cc(C(=O)O)cc(S(N)(=O)=O)c1Oc1ccccc1` [BUMETANIDE], the Activity in the assay with Canis familiaris [27] stood at 4 milliequivalent/kg; in the assay on Canis familiaris [19] it was 0.27 milliequivalent/kg; with Canis familiaris [28] it was 5.7 milliequivalent/kg; in the assay with Canis familiaris [1], 31 mL/kg; with Canis familiaris [20], 0.44 milliequivalent/kg; in the assay with Canis familiaris [21], 2.4 milliequivalent/kg. The Activity in the assay with Canis familiaris [2] is 0.49 milliequivalent/kg; with Canis familiaris [22] it was 3.5 milliequivalent/kg; in the assay with Canis familiaris [23] it was 26 mL/kg; in the assay with Canis familiaris [24], 10 mL/kg; with Canis familiaris [29] it was 0.84 milliequivalent/kg; with Canis familiaris [25], 1.4 milliequivalent/kg. The Activity turned out to be 39 mL/kg in the assay on Canis familiaris [14], 0.92 milliequivalent/kg in the assay with Canis familiaris [26], 3.3 milliequivalent/kg in the assay on Canis familiaris [3] and 4.5 milliequivalent/kg in the assay on Canis familiaris [4].
Consider `CCCCSc1cc(C(=O)O)cc(S(C)(=O)=O)c1Oc1ccccc1`, for which the Activity was 21 mL/kg with Canis familiaris [15], 3 milliequivalent/kg in the assay on Canis familiaris [16], 0.64 milliequivalent/kg in the assay with Canis familiaris [17] and 3.2 milliequivalent/kg in the assay with Canis familiaris [18]. Further, in the assay on Canis familiaris [23] (Canis lupus familiaris), the outcome was inactive.
`CS(=O)(=O)c1cc(C(=O)O)cc(NCc2ccccc2)c1C(=O)c1ccccc1`: the Activity was determined as 3.9 milliequivalent/kg in the assay on Canis familiaris [10]; 33 mL/kg with Canis familiaris [11]; 12 mL/kg in the assay on Canis familiaris [1]; 4.7 milliequivalent/kg in the assay on Canis familiaris [12]; 0.28 milliequivalent/kg with Canis familiaris [2]; 0.64 milliequivalent/kg in the assay with Canis familiaris [13]. Also, the values for the Activity with Canis familiaris [3] and in the assay with Canis familiaris [4] were 1.2 milliequivalent/kg and 1.7 milliequivalent/kg, respectively.
Consider `CCCCNc1cc(C(=O)O)cc2c1C(O)(c1ccccc1)CS2(=O)=O` (configuration not stated), for which the outcome with Canis familiaris [15] (Canis lupus familiaris) was inactive.
Regarding `CS(=O)(=O)c1cc(C(=O)O)c(NCc2ccccc2)cc1Sc1ccccc1`, the result in the assay with Canis familiaris [5] was inactive.
Regarding `CS(=O)(=O)c1cc(C(=O)O)cc(NCc2ccccc2)c1Sc1ccccc1`, the Activity worked out at 17 mL/kg in the assay on Canis familiaris [15]; 0.9 milliequivalent/kg in the assay on Canis familiaris [27]; 1 milliequivalent/kg in the assay with Canis familiaris [28]; 2 milliequivalent/kg in the assay with Canis familiaris [16]; 0.28 milliequivalent/kg in the assay on Canis familiaris [17]; 2.4 milliequivalent/kg in the assay with Canis familiaris [18]. Also, the Activity in the assay on Canis familiaris [29] stood at 0.18 milliequivalent/kg; with Canis familiaris [14] it was 6 mL/kg.
On to `CS(=O)(=O)c1cc(C(=O)O)c(NCc2ccco2)cc1Oc1ccccc1`, for which the Activity with Canis familiaris [15] was found to be 14 mL/kg; in the assay with Canis familiaris [16], 1.7 milliequivalent/kg; in the assay with Canis familiaris [17] it was 0.39 milliequivalent/kg; in the assay on Canis familiaris [18], 2 milliequivalent/kg.
